Experimental findings from patent publication US20250194597A1, “METHOD FOR INCREASING FLAVONOID CONTENT IN PLANT THROUGH TREATMENT WITH LOW-MOLECULAR-WEIGHT SULFUR COMPOUND” (REPUBLIC OF KOREA (RURAL DEVELOPMENT ADMINISTRATION), priority 2022, published 2025) are described below.

Each structure is given as a SMILES string.

What all share (type): in vivo
Assay [1] has as its system Chinese cabbage cultivar 5923. The assay is described as follows: Anthocyanin coloration observed with the naked eye, Chinese cabbage cultivar 5923 seedlings. As to conditions: cultured 10 days. How it is done: (§1) 3-(3-Thienyl) acrylic acid (hereinafter referred to as S17) and 3-(2-Thienyl) acrylic acid (hereinafter referred to as 3-(2-S)) dissolved in DMSO at a concentration of 50 μM or 200 μM, respectively, were prepared, and seeds of commercial Chinese cabbage cultivars 5923 and Hwimori were sterilized and then germinated on ½ MS solid medium to prepare 4-day seedlings showing consistent growth.

Assay [2] has as its system Chinese cabbage cultivar Whimori. The assay is described as follows: Anthocyanin coloration observed with the naked eye, Chinese cabbage cultivar Whimori seedlings. To be noted: 50 μM or 200 μM, cultured 10 days. Here is the method: as §1
The test system of assay [3] is Chinese cabbage cultivar 5923. The assay is described as follows: Flavonoid content of leaves by HPLC after aglyconization, cultivar 5923. To be noted: for cyanidin accumulation: 200 μM alone (no sucrose); for kaempferol content: treated alone (no sucrose), 50 and 200 μM, vs control. How it is done:
as §1
(§2) The leaves of the cultivars 5923 and Whimori prepared in Example 1-1 were collected and crushed, and then extracted with 50% methanol containing 2N HCl at 95° C. for 2 hours, and flavonoid substances present in the form of glycosides in the plants were aglyconized and analyzed by HPLC. After the substances were separated through HPLC using a C18 column, peaks were detected at 350 nm and 520 nm, and flavonoids and anthocyanin non-glycosides in the extract were identified by comparing the retention time and UV spectrum of flavonol non-glycoside standards such as kaempferol, quercetin, myricetin and isorhamnetin, and anthocyanin non-glycoside standards such as pelargonidin, cyanidin and delphinidin, respectively, and the content of the identified flavonoid and anthocyanin substances was estimated based on the concentration of the standards and the area of the peak. As a control group, the cultivar 5923 or Whimori that was not treated with sulfur compounds was used.

The subject of assay [4] is Chinese cabbage cultivar Whimori. Briefly: Flavonoid content of leaves by HPLC after aglyconization, cultivar Whimori. Here is the method: as §1, §2
The next assay relates to Arabidopsis thaliana. The assay is described as follows: Anthocyanin coloration of Arabidopsis thaliana seedlings. As to conditions: cultured 5 days; for anthocyanin coloration: 50 μM or 200 μM + 4% sucrose. How it is done: To confirm whether anthocyanin coloring effect occurs when Arabidopsis thaliana, which is a cruciferous plant such as Chinese cabbage, is treated with S17 or 3-(2-S), Arabidopsis thaliana was treated with S17 or 3-(2-S) alone, and each was treated with 4% sucrose. Specifically, Arabidopsis thaliana seeds were germinated on ½ MS solid medium supplemented with 1% sucrose, and then day 6 seedlings were placed on ½ MS medium supplemented with each of S17 (50 μM or 200 μM)+4% sucrose, or 3-(2-S) (50 μM or 200 μM)+4% sucrose and cultured for 5 days to observe anthocyanin coloration.

In assay [5] the test system is rice cultivar purple rice. The assay is described as follows: Anthocyanin coloration of rice cultivar purple rice. As to conditions: for anthocyanin coloration in the hypocotyls: cultured 7 days. Here is the method: To confirm whether anthocyanin coloring effects occur when not only dicotyledonous plants but also gramineous plants, which are monocotyledonous plants, are treated with S17 or 3-(2-S), seeds of the rice cultivar purple rice were sown on ½ MS medium containing each of S17 (40 μM) or 3-(2-S) (80 μM) and cultured for 7 days to observe anthocyanin coloration.

For `O=C(O)/C=C/c1cccs1` [3-(2-S), 3-(2-Thienyl) acrylic acid], the “anthocyanin coloration (naked eye)” value in assay [1] (200 μM + 4% sucrose) is recorded as “Coloration was confirmed”. Besides, in assay [2], the “anthocyanin coloration (naked eye)” value was “red coloration in Chinese cabbage in a concentration-dependent manner”. Also, in assay [3], the cyanidin accumulation entry was “cyanidin was accumulated” and the kaempferol content result is recorded as “increased in a concentration-dependent manner”. In addition, in assay [4] (200 μM + 4% sucrose), the production of cyanidin entry is reported as “produced”, the production of isorhamnetin result is given as “produced” and the production of quercetin entry was “produced”. Also, the kaempferol content entry in assay [4] (+ 4% sucrose, concentration dependence) is “increased in a concentration-dependent manner”. Also, the “kaempferol content compared to the control group” value in assay [4] (treated alone (no sucrose)) is given as “remarkably increased”. Besides, the anthocyanin coloration entry in the assay on Arabidopsis thaliana is given as “anthocyanin coloration occurred”. For the same molecule, the “anthocyanin coloration in the hypocotyls” value in assay [5] (80 μM) is listed as “anthocyanin coloration was strong”.
On to `O=C(O)/C=C/c1ccsc1` [S17, 3-(3-Thienyl) acrylic acid], for which the “anthocyanin coloration (naked eye)” value in assay [1] (50 μM + 4% sucrose) was “coloration appeared on the back of the cotyledons and true leaves”; in assay [1] (200 μM + 4% sucrose), “slightly increased coloration appeared”; in assay [1] (200 μM alone, no sucrose), “coloration appeared on the back of the leaves”; in assay [2] it was “red coloration in Chinese cabbage in a concentration-dependent manner”. Also, the “kaempferol content increase compared to the control group” value in assay [3] (50 μM + 4% sucrose) is given as “up to 6.3 times”. For the same molecule, the production of isorhamnetin entry in assay [3] (50 μM + 4% sucrose) was “confirmed”; in assay [4] (50 μM and 200 μM + 4% sucrose) it was “produced”. Further, the production of quercetin result in assay [3] (50 μM + 4% sucrose) is recorded as “confirmed”; in assay [4] (50 μM and 200 μM + 4% sucrose) it was “produced”. In addition, the “cyanidin content compared to the control group” value in assay [3] (200 μM + 4% sucrose) was “remarkably increased”. For the same molecule, the cyanidin accumulation result in assay [3] is given as “cyanidin was accumulated”. Besides, the anthocyanin production ability entry in assay [3] (200 μM vs 50 μM treated group, + 4% sucrose) is given as “remarkably enhanced”. In addition, in assay [3], the kaempferol content entry is recorded as “increased in a concentration-dependent manner”. Further, the “kaempferol content compared to the control group” value in assay [4] (50 μM and 200 μM + 4% sucrose) was “remarkably increased”; in assay [4] (treated alone (no sucrose)), “remarkably increased”. For the same molecule, in assay [4] (50 μM and 200 μM + 4% sucrose), the production of cyanidin result is “produced”. Further, the anthocyanin coloration result in the assay on Arabidopsis thaliana is “anthocyanin coloration occurred”. Also, in the assay with Arabidopsis thaliana (+ 4% sucrose), the “anthocyanin coloring compared to the 3-(2-S) treated group” value is listed as “stronger coloring”. Moreover, the “anthocyanin coloration in the hypocotyls” value in assay [5] (40 μM) is “anthocyanin coloration was strong”. For the same molecule, the “coloration-inducing effect (anthocyanin production effect) relative to 3-(2-S)” value in assay [5] (S17 40 μM vs 3-(2-S) 80 μM) is “comparatively superior”.
